Measurements: patent US20070065898A1, “Fluorescence polarization assays for binding of caspase inhibitors and probes therefor” (Wyeth, priority 2005, published 2007)
pIC50: −log10 of the molar value.

Target: T1, caspase 3 (Homo sapiens, UniProt P42574)
T1 construct: His tag (C); made in house; host or cells: E. coli
T1 sequence (P42574 29-175 limits assumed): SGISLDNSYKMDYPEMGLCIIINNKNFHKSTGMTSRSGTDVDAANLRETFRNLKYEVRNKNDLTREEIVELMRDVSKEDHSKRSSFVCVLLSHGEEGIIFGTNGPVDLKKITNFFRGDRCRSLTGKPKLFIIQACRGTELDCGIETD
T1 sequence (P42574 176-277 limits assumed): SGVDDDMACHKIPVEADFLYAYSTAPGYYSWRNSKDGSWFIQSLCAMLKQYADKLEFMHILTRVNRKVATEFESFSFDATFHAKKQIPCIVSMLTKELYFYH
Assay: Determination of probe IC50: caspase inhibition assay, cleavage of fluorogenic substrate Ac-DEVD-AFC
Assay type: biochemical
Conditions: substrate Ac-DEVD-AFC 25 μM; caspase added last; cleavage monitored 90 minutes, ex 400 nm / em 505 nm
Method: This standard pharmacological test procedure to assess the inhibition of recombinant caspase 3 activity of selected compounds was adapted from Thornbery, N., J. Biol. Chem. 1997 272(29) 17907-17911 and Stennicke, H. R. et al., J. Biol. Chem. 1997 272(41) 25719-25723. The procedure used and results obtained are briefly described below.
Caspase 3 was assayed at 23° C. (room temp) in 96-well plates using the internally quenched tetrapeptide substrate N-acetyl-aspartyl-glutamyl-valyl-aspartate-7-amino-4-trifluoromethyl coumarin (Ac-DEVD-AFC purchased from Biomol). The assays are conducted at pH 7.2 in a buffered system containing 20 mM PIPES, 100 mM NaCl, 1 mM EDTA, 0.1% CHAPS, 10% sucrose and 5 mM L-cysteine. The final concentration of the substrate is 25 μM. Enzymic cleavage between the aspartate and the AFC fluorophore liberates 7-amino-4-trifluoromethyl coumarin which is detected using an excitation wavelength of 400 nm and an emission wavelength of 505 nm in a SpectraMax GeminiXS plate reader operated at room temperature. A steady state rate of substrate cleavage is obtained for analysis. […]
The substrate Ac-DEVD-AFC (25 μM) was added to varying inhibitor (probe) concentrations ranging from 20 μM to 2 nM. […] The cleavage of the substrate by the enzyme (caspase) was monitored continuously for 90 minutes by exciting the substrate at 400 nm and monitoring the fluorescence at emission at 505 nm. […]

pIC50 | Structure (SMILES)
7.82 | CN1C(=O)C(=O)c2cc(S(=O)(=O)N3CCC[C@H]3CNC(=O)CCCCCNC(=O)c3ccc(-c4c5ccc(=O)cc-5oc5cc(O)ccc45)c(C(=O)O)c3)ccc21 [Example 2, 2-(6-Hydroxy-3-oxo-3H-xanthen-9-yl)-5-[({6-[({(2S)-1-[(1-methyl-2,3-dioxo-2,3-dihydro-1H-indol-5-yl)sulfonyl]pyrrolidin-2-yl}methyl)amino]-6-oxohexyl}amino)carbonyl]benzoic acid]
8.00 | CN1C(=O)C(=O)c2cc(S(=O)(=O)N3CCC[C@H]3CNC(=O)c3ccc(-c4c5ccc(=O)cc-5oc5cc(O)ccc45)c(C(=O)O)c3)ccc21 [Example 1, 2-(6-Hydroxy-3-oxo-3H-xanthen-9-yl)-5-{[({(2S)-1-[(1-methyl-2,3-dioxo-2,3-dihydro-1H-indol-5-yl)sulfonyl]pyrrolidin-2-yl}methyl)amino]carbonyl}benzoic acid]
